Reference: patent US7652031B2, “Compounds which mimic the chemical and biological properties of discodermolide” (priority 2001, dated 2010)
Read-outs that look alike come from different tables or passages of the source.

Key:
SKOV3 cells = assay: Cytotoxicity assay, SKOV3 cells; assay type: cell-based, human
Experimental: The SKOV3 ovarian carcinoma cell line was obtained from Dr. V. Ling and was maintained as described in McDaid, H. M., et al., “Structure-activity profiles of eleutherobin analogs and their cross-resistance in Taxol-resistant cell lines”, Cancer Chemother. Pharmacol., 1999, 44, 131-137.
(§1) A549 cells were seeded in triplicate at a density of 1×10^4 cells/ml in 6-well plates and allowed to attach for 24 h. After incubation with various drug concentrations for 72 h, adherent cells were trypsinized and counted (Coulter Counter model Z1; Coulter Corp., Miami, Fla.), and the IC50 was determined. SKOV3 cells were seeded at a density of 2×10^4 cells/ml and the above procedure followed.

A549 cells [1] = assay: Flow cytometry (cell cycle), A549 cells; assay type: cell-based, human; conditions: 24 h
murine splenocytes [2] = conditions: in vitro, cited from earlier work
MCF-7 cells = conditions: cited from earlier work
[3] = test system: microtubule protein (MTP); assay: Electron microscopy of microtubules from the in vitro polymerization assay; assay type: biochemical, calf; conditions: for Average Polymer Length (μm): microtubule lengths after assembly, minimum of 50 microtubules
Experimental: Aliquots (50 μL) were taken from the in vitro polymerization assay at the end of the reaction and placed onto 300-mesh carbon-coated, Formavar-treated copper grids. Samples were then stained with 20 μL of 2% uranyl acetate and viewed with a JEOL model 100CX electron microscope. To determine the lengths of the microtubules, electron micrograph negatives were scanned and then analyzed using IP Lab software. Measurements were performed on negatives at ×10000 and ×50000, with a minimum of 50 microtubules measured for each compound.
The microtubule protein from each in vitro assay was examined by electron microscopy to confirm that normal microtubules were formed in the presence of the compounds. In all cases, except for the DMSO control, microtubules were observed. […] Table 1 provides a comparison of microtubule lengths after assembly with Taxol, discodermolide and analogs I-i, I-ii, I-iii, and I-iv.

[4] = test system: microtubule protein (MTP); assay: In vitro tubulin polymerization assay (turbidity at 350 nm); assay type: biochemical, calf; conditions: for induction of tubulin assembly in the absence of GTP / extent of polymerization after 100 min / initial slope (0-5 min), slope for (+)-discodermolide assigned 1.0: 10 μM; for induction of tubulin assembly in the absence of GTP: 37° C.; for extent of polymerization after 100 min: turbidity; for initial slope (0-5 min), slope for (+)-discodermolide assigned 1.0: first 5 min, relative to (+)-discodermolide; for stability of the microtubules formed against calcium-induced depolymerization: microtubules formed in the presence of the compound
Experimental: (§2) All drugs were dissolved in sterile DMSO and stored at −20° C. Microtubule protein (MTP) was purified by 2 cycles of temperature-dependent assembly-disassembly from calf brain and stored in liquid nitrogen. See, for example, Welsenberg, R. C., “Microtubule formation in vitro in solutions containing low calcium concentrations”, Science, 1972, 177, 1104-1105.
Microtubule polymerization was evaluated by recording the change in turbidity of MTP at 350 nm for 100 min in a spectrophotometer (UVIKON, Research Instruments Int., San Diego, Calif.). See, for example, Shelanski, M. L., et al., “Microtuble assembly in the absence of added nucleotides”, Proc. Natl. Acad. Sci. USA, 1973, 70, 765-768. Purified MTP was diluted in assembly buffer containing 0.1 M MES, I mM EGTA, 0.5 mM MgCl2, and 3 M glycerol (pH 6.6) to a final concentration of 1 mg/ml. All compounds were evaluated at a concentration of 10 μM at 37° C. in the absence of GTP. The changes in absorption that occurred during the first 5 min were used to plot initial slopes from the linear portion of each curve in order to compare the initial activity of each compound.
The activities of Taxol, (+)-discodermolide, and several structural analogs were determined in the foregoing in vitro tubulin polymerization assay that measures changes in absorbance that correlate with the extent of microtubule polymerization. It will be appreciated that microtubule polymerization involves both nucleation (initiation) and elongation steps. The initial rates of polymerization reflect the nucleation process. See, for example, Gaskin, F., et al. “Turbidimetric studies of the in vitro assembly and disassembly of porcine neurotubules”, J. Mol. Biol., 1974, 89, 737-758.

tubulin [5] = conditions: cited from earlier work
A549 cells [6] = assay: Immunofluorescence (microtubules, DNA), A549 cells; assay type: cell-based, human
Experimental: In addition, cells were stained with Hoescht solution (Sigma; 1:2.5 dilution) for 15 min after the secondary antibody wash. Slides were analyzed using a Zeiss Axiophot microscope (rhodamine and DAPI filters) at ×100 magnification.

microtubules = assay: Drug binding competition assay ([3H]Taxol binding to preformed microtubules); set-up: species or system calf
Experimental: as §2
The assay was performed using methods described in Bollag, D. M., et al., “Epothilones, a new class of microtubule-stabilizing agents with a Taxol-like mechanism of action”, Cancer-Res., 1995, 55, 2325-2333 and He, L., et al., “A common pharmacophore for Taxol and the epothilones based on the biological activity of a taxane molecule lacking a C-13 side chain”, Biochemistry, 2000, 39, 3972-3978. MTP (0.4 mg/ml) was incubated at 37° C. with 1 mM GTP and […] Taxol for 20 min to induce the assembly of microtubules. One hundred nanomolar [^3H]Taxol (specific activity: 19.3 Ci/mmol) and the indicated concentration of the competing agent were added simultaneously to the preformed microtubules. The mixtures were further incubated at 37° C. for 30 min to allow binding of [^3H]Taxol. Microtubules were collected by ultracentrifugation (100,000 g, 1 hr, 30° C.) and the radioactivity measured using a liquid scintillation counter. The inhibition of binding of [^3H]Taxol to microtubules was expressed as a percentage compared to the control (100%).

tubulin [7] = conditions: cited from earlier work; remark: listed apart in the source
[8] = test system: human carcinoma cell lines; conditions: in cells; cited from earlier work
A549 cells [9] = assay: Cytotoxicity assay, A549 cells; assay type: cell-based, human
Experimental: The A549 lung carcinoma cell line was maintained as described in Kavallaris, M., et al., “Taxol-resistant epithelial ovarian tumors are associated with altered expression of specific β-tubulin isotypes”, J. Clin. Invest., 1997, 100, 1282-1293.
as §1

murine splenocytes [10] = conditions: in vitro; cited from earlier work
F1 recipient mice = conditions: cited from earlier work
[11] = (+)-discodermolide 25 nM, analogs at different cytotoxic concentrations

## C=C/C=C\[C@H](C)[C@H](OC(N)=O)[C@@H](C)[C@H](O)[C@@H](C)C/C(C)=C\[C@H](C)[C@@H](O)[C@@H](C)/C=C\[C@@H](O)C[C@@H]1OC(=O)[C@H](C)[C@@H](O)[C@H]1C (single isomer, unassigned) [(+)-discodermolide]
SKOV3 cells; Homo sapiens, SK-OV-3, 72 h, read-out: SKOV3 (IC50(μm))
  IC50: 31.3 ± 6.8 nM
SKOV3 cells; SKOV3 vs A549
  less active in SKOV3 compared to A549 cells: approximately 8 fold
A549 cells [1]; 25 nM
  hypodiploid population of cells (apoptosis): increase in the hypodiploid population of cells
A549 cells [1]; [11]
  cell cycle block in G2/M phase: blocked in the G2/M phase of the cell cycle
Murine splenocytes [2]
  suppression of concanavalin A-induced mitogenesis: suppresses
Murine splenocytes [2]; mixed-lymphocyte reaction and mitogenesis assays
  cytotoxicity associated with the suppression: no associated cytotoxicity
MCF-7 cells
  potency at inducing microtubule bundles compared to Taxol: more potent
[3]; electron microscopy
  microtubule length compared with GTP or Taxol: much shorter microtubules
[3]
  Average Polymer Length (μm): 0.78 ± 0.3 μm
[4]
  induction of tubulin assembly in the absence of GTP: induced tubutin assembly in the absence of GTP
  extent of polymerization after 100 min: essentially the same
  initial slope (0-5 min), slope for (+)-discodermolide assigned 1.0: 1.0
  stability of the microtubules formed against calcium-induced depolymerization: stable against calcium-induced depolymerzation
[4]; end of assay, 100,000 g for 30 min
  level of polymerization by protein content in the supernatant: comparable
Tubulin [5]; listed as 1
  binding affinity compared with Taxol: much higher
Tubulin [5]; listed as (+)-discoderrnolide
  binding affinity compared with Taxol: higher affinity for tubulin
A549 cells [6]
  location of microtubule bundles in the cells: at the periphery of the cells
A549 cells [6]; [11]
  microtubule bundles and condensed nuclear DNA: Microtubule bundles and condensed nuclear DNA appeared
A549 cells [6]; effect seen at 25 nM and above
  concentrations at which bundles and condensed DNA were not seen: below 12 nM
microtubules; 1 μM competing agent
  inhibition of binding of [3H]Taxol to microtubules: very similar inhibition
microtubules; 10 μM competing agent
  inhibition of binding of [3H]Taxol to microtubules: approximately 45%
microtubules; 100 μM competing agent
  inhibition of binding of [3H]Taxol to microtubules: ~95%
Tubulin [7]
  potency at nucleating tubulin assembly compared to Taxol: more potent
[8]
  cytotoxicity compared with Taxol: less cytotoxic than Taxol
A549 cells [9]
  inhibition of the proliferation of A549 cells: inhibited the proliferation of A549 cells
A549 cells [9]; Homo sapiens, A549, 72 h, read-out: A549 (IC50(μm))
  IC50: 3.8 nM
Murine splenocytes [10]
  suppression of the two-way mixed-lymphocyte reaction: suppresses
F1 recipient mice; compared with cyclosporin A and FK506
  potency in graft-vs.-host splenomegaly response: intermediate between those of cyclosporin A and FK506
F1 recipient mice; injection of parental splenocytes into F1 recipient mice
  suppression of graft-vs.-host splenomegaly response: suppresses

## CC(=O)O[C@H]1C(=O)[C@@]2(C)[C@H]([C@H](OC(=O)c3ccccc3)[C@]3(O)C[C@H](OC(=O)[C@H](O)[C@@H](NC(=O)c4ccccc4)c4ccccc4)C(C)=C1C3(C)C)[C@]1(OC(C)=O)CO[C@@H]1C[C@@H]2O [Taxol]
[3]
  Average Polymer Length (μm): 3.3 ± 1.2 μm
[4]
  induction of tubulin assembly in the absence of GTP: induced tubutin assembly in the absence of GTP
  extent of polymerization after 100 min: essentially the same
  initial slope (0-5 min), slope for (+)-discodermolide assigned 1.0: 0.28
  stability of the microtubules formed against calcium-induced depolymerization: stable against calcium-induced depolymerzation
A549 cells [6]
  location of microtubule bundles in the cells: throughout the cells
microtubules; 1 μM competing agent
  inhibition of binding of [3H]Taxol to microtubules: very similar inhibition
microtubules; 10 μM competing agent
  inhibition of binding of [3H]Taxol to microtubules: approximately 45%
microtubules; 100 μM competing agent
  inhibition of binding of [3H]Taxol to microtubules: 80%
